Results: patent US20260217677A1, “ORGANIC COMPOUNDS AS NLRP3 INHIBITORS” (KODIAK SCIENCES, INC., priority 2023, published 2026)

Each compound was assayed on IL-1β release in U937 cells after NLRP3 activation (assay: IL-1β release inhibition in U937 cells (MSD V-Plex)). Conditions: Homo sapiens, U-937, read-out: IL-1β IC50, Table 3; PMA-differentiated U937 cells, 1 μg/mL LPS 3 h, compound 30 min, 10 mM nigericin 1 h.
Description: Differentiating media was prepared by adding 20 nM phorbol 12-myristate 13-acetate (PMA) (AdipoGen AG-CN2-0010-M005) to growth medium. A cell suspension was prepared with differentiating media at 500K cells/mL. […] Plates were placed in an incubator for 90 hours. […] Differentiating media was removed and priming media was added to each well. The plates were placed in the incubator for three (3) hours. 20 mM compound DMSO stock solutions were prepared and were further diluted to 0.4 mM; This solution was serially diluted 6 times in a 1:5 ratio. A solvent control was included.
After three (3) hours of priming, all the media was removed. Next, assay media with compounds was added in duplicate columns. The plate was placed in an incubator for 30 min. Media with a final concentration of 10 mM nigericin was then added for one (1) hour. The supernatant was collected and frozen immediately at −80° C. The plate was transferred to −20° C. the next day and for later determination of cytokine IL-1ß levels.
The release of IL-1ß into the cell media was determined with the MSD® Multi-Spot Assay System (V-Plex, IL-1ß kit, K151KPD). Following the manufacturer's protocol (Alternate Protocol 3, Dilute-In-Plate), the level of IL-1ß in the above collected supernatant plate was measured using electro-chemiluminescent signals. Using MSD DISCOVERY WORKBENCH® analysis software, the signals were converted to the concentration of IL-1ß in each well. The IC50 values of the compounds were calculated using fitted non-linear regression curve in Graph Pad Prism software. The detection range of IL-1ß using MSD kit was approximately 0.15 to 600 μg/mL (based on various lots of standards purchased from MSD).
Cc1cc(N[C@@H]2CCCN(CCN3CC(O)C3)C2)nnc1-c1ccc(C(F)(F)F)cc1O [Example 37, (R)-1-(2-(3-((6-(2-Hydroxy-4-(trifluoromethyl)phenyl)-5-methylpyridazin-3-yl)amino)piperidin-1-yl)ethyl)azetidin-3-ol] was tested, and the IC50 was 5 to 50 nM.
Work on O=C(CN1CCC[C@@H](Nc2nnc(-c3ccc(C(F)(F)F)cc3O)c3c2CNC3)C1)N1CCC(O)CC1 [Example 57, (R)-2-(3-((4-(2-Hydroxy-4-(trifluoromethyl)phenyl)-6,7-dihydro-5H-pyrrolo[3,4-d]pyridazin-1-yl)amino)piperidin-1-yl)-1-(4-hydroxypiperidin-1-yl)ethan-1-one] yielded an IC50 of 50 to 500 nM.
Compound O=C(CN1CCC[C@@H](Nc2nnc(-c3ccc(C(F)(F)F)cc3O)c3c2COC3)C1)N1C[C@H](O)[C@@H](F)C1 [Example 28, 1-((3S,4S)-3-Fluoro-4-hydroxypyrrolidin-1-yl)-2-((R)-3-((4-(2-hydroxy-4-(trifluoromethyl)phenyl)-5,7-dihydrofuro[3,4-d]pyridazin-1-yl)amino)piperidin-1-yl)ethan-1-one] has an IC50 of 5 to 50 nM.
Cc1cc(N[C@@H]2CCCN(C(=O)C34CC(O)(C3)C4)C2)nnc1-c1ccc(C(F)(F)F)cc1O [Example 63, (R)-(3-((6-(2-Hydroxy-4-(trifluoromethyl)phenyl)-5-methylpyridazin-3-yl)amino)piperidin-1-yl) (3-hydroxybicyclo[1.1.1]pentan-1-yl)methanone] showed an IC50 of 5 to 50 nM.
For O=C(CN1CCC[C@@H](Nc2nnc(-c3ccc4sccc4c3O)c3c2COC3)C1)N1CCC(O)CC1 [Example 56, (R)-2-(3-((4-(4-Hydroxybenzo[b]thiophen-5-yl)-5,7-dihydrofuro[3,4-d]pyridazin-1-yl)amino)piperidin-1-yl)-1-(4-hydroxypiperidin-1-yl)ethan-1-one], the IC50 was 5 to 50 nM.
O=C(CN1CCC[C@@H](Nc2nnc(-c3ccc(C(F)(F)F)cc3O)c3ccccc23)C1)N1CCC(O)CC1 [Example 33, (R)-2-(3-((4-(2-Hydroxy-4-(trifluoromethyl)phenyl)phthalazin-1-yl)amino)piperidin-1-yl)-1-(4-hydroxypiperidin-1-yl)ethan-1-one] gave an IC50 of under 5 nM.
In the case of Cc1c(N[C@@H]2CCCN(CC34CC(O)(C3)C4)C2)nnc(-c2ccc(C(F)(F)F)cc2O)c1C [Example 68, (R)-3-((3-((6-(2-Hydroxy-4-(trifluoromethyl)phenyl)-4,5-dimethylpyridazin-3-yl)amino)piperidin-1-yl)methyl) bicyclo[1.1.1]pentan-1-ol], the IC50 is reported as 5 to 50 nM.
In the case of Cc1cc(N[C@@H]2CCCN(C[C@H]3C[C@@H](O)C3)C2)nnc1-c1ccc2sccc2c1O [Example 51, 5-(6-(((R)-1-(((1s,3S)-3-Hydroxycyclobutyl)methyl)piperidin-3-yl)amino)-4-methylpyridazin-3-yl)benzo[b]thiophen-4-ol], the IC50 is reported as under 5 nM.
In the case of Cc1cc(-c2ccc(C(F)(F)F)cc2O)nnc1N[C@@H]1CCCN(CC(=O)N2CC[C@H](O)C2)C1 [Example 31, 2-((R)-3-((6-(2-Hydroxy-4-(trifluoromethyl)phenyl)-4-methylpyridazin-3-yl)amino)piperidin-1-yl)-1-((S)-3-hydroxypyrrolidin-1-yl)ethan-1-one], the IC50 is reported as 50 to 500 nM.
In the case of Cc1cc(N[C@@H]2CCCN(CCC3CCC(O)CC3)C2)nnc1-c1ccc(C(F)(F)F)cc1O (single isomer, unassigned) [Example 72], the IC50 is reported as under 5 nM.
In the case of O=C(CN1CCC[C@@H](Nc2nnc(-c3ccc(C(F)(F)F)cc3O)c3c2COC3)C1)N1CCC(O)CC1 [Compound 23, (R)-2-(3-((4-(2-Hydroxy-4-(trifluoromethyl)phenyl)-5,7-dihydrofuro[3,4-d]pyridazin-1-yl)amino)piperidin-1-yl)-1-(4-hydroxypiperidin-1-yl)ethan-1-one], the IC50 is reported as under 5 nM.
Compound Cc1cc(N[C@@H]2CCCN(CC(=O)NC34CC(O)(C3)C4)C2)nnc1-c1ccc(C(F)(F)F)cc1O [Compound 13, (R)-2-(3-((6-(2-Hydroxy-4-(trifluoromethyl)phenyl)-5-methylpyridazin-3-yl)amino)piperidin-1-yl)-N-(3-hydroxybicyclo[1.1.1]pentan-1-yl)acetamide] has an IC50 of 5 to 50 nM.
Cc1cc(N[C@@H]2CCCN(CC(=O)N3CCC(O)CC3)C2)nnc1-c1ccc(C(F)(F)F)cc1O [Compound 9, 2-[(3R)-3-({6-[2-Hydroxy-4-(trifluoromethyl)phenyl]-5-methylpyridazin-3-yl}amino)piperidin-1-yl]-1-(4-hydroxypiperidin-1-yl)ethanone] gave an IC50 of 5 to 50 nM.

Same assay, conditions: Homo sapiens, U-937, read-out: IL-1β IC50, Table 4; PMA-differentiated U937 cells, 1 μg/mL LPS 3 h, compound 30 min, 10 mM nigericin 1 h
With Cc1cc(N[C@@H]2CCCN(CC(=O)N3C[C@H]4CNC[C@H]4C3)C2)nnc1-c1ccc(C(F)(F)F)cc1O [Example 112, 1-((3aR,6aS)-Hexahydropyrrolo[3,4-c]pyrrol-2 (1H)-yl)-2-((R)-3-((6-(2-hydroxy-4-(trifluoromethyl)phenyl)-5-methylpyridazin-3-yl)amino)piperidin-1-yl)ethan-1-one] the IC50 was 5 to 50 nM.
Cc1cc(N[C@@H]2CCCN(CC(=O)NC3CCNCC3)C2)nnc1-c1ccc(C(F)(F)F)cc1O [Example 95, (R)-2-(3-((6-(2-Hydroxy-4-(trifluoromethyl)phenyl)-5-methylpyridazin-3-yl)amino)piperidin-1-yl)-N-(piperidin-4-yl)acetamide] gave an IC50 of 50 to 500 nM.
In the case of Cc1cc(N[C@@H]2CCCN(CCN)C2)nnc1-c1ccc(C(F)(F)F)cc1O [Example 78, (R)-2-(6-((1-(2-Aminoethyl)piperidin-3-yl)amino)-4-methylpyridazin-3-yl)-5-(trifluoromethyl)phenol], the IC50 is reported as under 5 nM.
Work on Cc1cc(N[C@@H]2CCCN(CCNCC3COC3)C2)nnc1-c1ccc(C(F)(F)F)cc1O [Example 108, (R)-2-(4-Methyl-6-((1-(2-((oxetan-3-ylmethyl)amino)ethyl)piperidin-3-yl)amino)pyridazin-3-yl)-5-(trifluoromethyl)phenol] yielded an IC50 of 5 to 50 nM.
Cc1cc(N[C@@H]2CCCN(C[C@@H]3CCCN3)C2)nnc1-c1ccc(C(F)(F)F)cc1O [Example 106, 2-(4-Methyl-6-(((R)-1-(((S)-pyrrolidin-2-yl)methyl)piperidin-3-yl)amino)pyridazin-3-yl)-5-(trifluoromethyl)phenol] was tested, and the IC50 was 5 to 50 nM.
For NC1CC2(CCN(C(=O)CN3CCC[C@@H](Nc4nnc(-c5ccc(C(F)(F)F)cc5O)c5c4COC5)C3)CC2)C1 [Example 101, (R)-1-(2-Amino-7-azaspiro[3.5]nonan-7-yl)-2-(3-((4-(2-hydroxy-4-(trifluoromethyl)phenyl)-5,7-dihydrofuro[3,4-d]pyridazin-1-yl)amino)piperidin-1-yl)ethan-1-one], the IC50 was 5 to 50 nM.
Oc1cc(C(F)(F)F)ccc1-c1nnc(N[C@@H]2CCCN(C3CNC3)C2)c2c1CCC2 [Example 80, (R)-2-(4-((1-(Azetidin-3-yl)piperidin-3-yl)amino)-6,7-dihydro-5H-cyclopenta[d]pyridazin-1-yl)-5-(trifluoromethyl)phenol] showed an IC50 of 5 to 50 nM.
In the case of Cc1cc(N[C@@H]2CCCN(CC(=O)N3CCNCC3)C2)nnc1-c1ccc2sccc2c1O [Example 113, (R)-2-(3-((6-(4-hydroxybenzo[b]thiophen-5-yl)-5-methylpyridazin-3-yl)amino)piperidin-1-yl)-1-(piperazin-1-yl)ethan-1-one], the IC50 is reported as under 5 nM.
Work on Cc1cc(N[C@@H]2CCCN(CC(F)(F)CN)C2)nnc1-c1ccc(C(F)(F)F)cc1O [Example 97, (R)-2-(6-((1-(3-Amino-2,2-difluoropropyl)piperidin-3-yl)amino)-4-methylpyridazin-3-yl)-5-(trifluoromethyl)phenol] yielded an IC50 of 5 to 50 nM.
